Experimental data published in patent publication US10551384B2, “MTOR kinase mutations and methods of use thereof” (RUTGERS, THE STATE UNIVERSITY OF NEW JERSEY, priority 2016, dated 2020).

Tests used:
[1] = system: mTORC1 and mTORC2 signaling in SW480 mTOR(L2185A) cells; experiment: mTORC1/mTORC2 signaling immunoblot in SW480 cells carrying L2185A mutant mTOR; type: cell-based, human; details: various concentrations, 1 hr, immunoblot of P-S6K, P-4E-BP1, P-AKT
Protocol: (§1) (FIG. 5A) SW480 cells carrying homozygous WT mTOR or L2185A mutant alleles were treated with various concentrations of AZD8055, INK-128, OSI-027 and PP242 for 2 day. Growth of SW480 cells was measured by SRB assay. Data represent means±SD in three independent experiments. (FIG. 5B) SW480 cells carrying homozygous WT and L2185A mutant mTOR allele were treated with a single dose of AZD8055 (100 nM), INK-128 (100 nM), OSI-027 (6,000 nM), and PP242 (2,000 nM) for different times. Cell growth was measured by SRB assay. The drug carrier DMSO was used as a control. Data represent means±SD in three independent experiments. (FIG. 5C) SW480 cells carrying homozygous WT and L2185A mutant mTOR were treated with various concentrations of INK-128, OSI-027, AZD8055 and PP242 for 1 hr. The effect on the level of P-S6K, S6K, P-4E-BP1, 4EB-P1, P-AKT and AKT was analyzed by immunoblot. […] The growth of SW480 cells was measured by SRB assay. Data represent means±SD in three independent experiments.
(§2) Antibodies against tubulin, S6K, phospho-S6K (Thr389), 4E-BP1, phospho-4E-BP1 (Thr37/46), Akt, phospho-Akt (Thr308), and phospho-Akt (Ser473) were purchased from Cell Signaling Technology. […] For drug sensitivity test, cancer cells were seeded in 96-well plates at a density of 2,000 cells per well. 24 hours later, different concentrations of mTOR inhibitors were added in quadruplicate. Cell growth was measured by the sulforhodamine B (SRB) assay as previously described (Vichai, V., and Kirtikara, K. (2006). Nature protocols 1, 1112-1116).

[2] = system: SW480 colorectal cancer cells carrying L2185A mutant mTOR alleles; experiment: SRB growth assay of SW480 cells carrying L2185A mutant mTOR; type: cell-based, human; details: various concentrations, 2 day
Protocol: as §1
Cancer cell lines were maintained in DMEM or RPMI 1640, supplemented with 10% fetal bovine serum (Invitrogen) and 1% penicillin/streptomycin (Invitrogen). CRISPR/cas9 technology was used to engineer mutant mTOR allele in SW480 colorectal and H460 lung cancer cells. Briefly, The target sequence for mTOR, […] (SEQ ID NO: 3 was designed through the online tool at crispr.mit.edu, and cloned into pSPCas9(BB)-2A-GFP vector (PX458 in Addgene). Genomic mTOR mutation was engineered using a protocol as described (Ran, et al. (2013). Nature protocols 8, 2281-2308) and was confirmed by targeted sequencing.
as §2

TOR2-mTOR L2185G mutant = experiment: Yeast spotting assay for drug resistance, TOR2-mTOR L2185G; type: cell-based, S. cerevisiae; details: 37° C., with amphotericin B
Source text: FIGS. 4A-C. […] (FIG. 4A) Scheme of a yeast-based screen for drug-resistant mutations in mTOR kinase domain. mTOR kinase domain is amplified by error-prone PCR to generate randomized mutations, which is then recombined in frame into the TOR2-mTOR plasmid by gap-repair in tort-dg cells, and is selected on SC-leucine minus plates. Replica plating is then made onto SC-leucine plates containing DMSO or mTOR kinase inhibitor for selection of drug resistant clones. (FIG. 4B) tor2-dg cells expressing WT or mutant TOR2-mTOR were serially diluted by 10-fold and assayed for sensitivity to different mTOR kinase inhibitors in the presence of amphotericin B. Vector and TOR2 were used as controls. Drug resistant assay was performed at 37° C. in the presence of amphotericin B (except OSI-027). (FIG. 4C) Systematic mutational analysis of L2185 on drug resistance. tort-dg cells expressing WT or mutant TOR2-mTOR carrying all possible mutations at L2185 were serially diluted by 10-fold and tested for sensitivity to different mTOR kinase inhibitors at 37° C.
To enhance yeast cell permeability, log phase W303 tort-dg cells were spread evenly on SD-Leu agarose plates. After drying, small sterile filter discs were placed on the surface and 5 μl of indicated mTOR inhibitors or DMSO were applied to each disc with or without adding 5 μl of amphotericin B (10 μM), miconazole (50 μM) or caspofungin (50 μM). Plates were incubated at 37° C. for 3 day. Drug resistance profiles of TOR2-mTOR mutant cells were determined by the spotting assay. For this assay, 10-fold serial dilutions of cells were spotted on SD-leu plates in the presence of indicated mTOR inhibitors with or without amphotericin B (200 nM) and incubated at 37° C. for 3 day.

[3] = system: Flag-mTOR(L2185A) in HEK293T cells; experiment: mTOR signaling immunoblot in HEK293T cells transiently expressing Flag-mTOR(L2185A); type: cell-based, human; details: various concentrations, 1 hr, vs WT Flag-mTOR
Protocol: (FIG. 10A) Flag-mTOR(L2185A), when transiently expressed in HEK293T cells, confers drug resistance to mTOR kinase inhibitors. HEK293T cells transiently expressing WT and L2185A mutant Flag-mTOR were treated with various concentrations of INK-128, OSI-027 for 1 hr. The effect on the level of P-S6K, S6K, P-4E-BP1, 4EB-P1, P-AKT and AKT was analyzed by immunoblot. (FIG. 10B) Sequencing verification of genome-engineered SW480 and H460 cells carrying homozygous and heterozygous L2185A mutations in mTOR locus. (FIG. 10C) Independent clones of engineered SW480 cells confer similar drug resistance. Cells were treated with various concentrations of AZD8055 and INK-128 for 2 days. Cell growth was measured by SRB assay. Clones #1, 3 carry heterozygous L2185A mutation. Clones #2, 4 carry homozygous L2185A mutation. Data represent means±SD in three independent experiments. (FIG. 10D) SW480 cells carrying heterozygous and homozygous mTOR(L2185A) mutant alleles have similar drug resistance to mTOR kinase inhibitors. SW480 cells carrying homozygous WT and L2185A mutant mTOR alleles were treated with various concentrations of AZD8055, INK-128, OSI-027, and PP242 for 2 days. Cell growth was measured by SRB assay. […] Cell growth was measured by SRB assay. […] The effect on level of P-S6K, P-4E-BP1 and P-AKT was analyzed by immunoblot. […] The growth of H460 cells was measured by SRB assay. […]

## CC(C)n1nc(-c2ccc3oc(N)nc3c2)c2c(N)ncnc21 [INK128]
[1]
  drug resistance of mTORC1 and mTORC2 signaling, SW480 L2185A vs WT: drug-resistant signaling by both mTORC1 and mTORC2
[2]
  drug resistance/sensitivity of cell growth, SW480 L2185A vs WT: confers resistance
TOR2-mTOR L2185G mutant
  drug resistance of TOR2-mTOR L2185G mutant yeast: moderately resistant
[3]
  drug resistance of mTOR signaling (P-S6K, P-4E-BP1, P-AKT) with Flag-mTOR(L2185A): confers resistance
